Laboratory results taken from ChEMBL document CHEMBL5236643, “Discovery and characterization of orally bioavailable 4-chloro-6-fluoroisophthalamides as covalent PPARG inverse-agonists” (Bioorg Med Chem, 2023).
≈ marks a conversion by molar mass, not a printed value. Calls of active or inactive are those of the source. The calls are words filed in the database; no cut-off is given here.

Assays:
[1] = Antiproliferative activity against human UM-UC-9 assessed as inhibition of cell proliferation measured after 7 days by IncuCyte live-cell imaging assay; conditions: UM-UC-9, 168 h
[2] = Antiproliferative activity against human UM-UC-9 assessed as inhibition of cell proliferation by measuring maximum efficacy after 7 days by IncuCyte live-cell imaging assay; type: functional; conditions: UM-UC-9, 168 h, time 7 day
[3] = Microsomal stability in human liver microsomes assessed as intrinsic clearance at 1 uM measured upto 60 mins in presence of NADPH by HPLC-MS/MS analysis; type: ADME, Microsome; conditions: read-out: CLH (converted)
[4] = Stability in rat hepatocytes assessed as intrinsic clearance at 1 uM incubated for 1 hr by HPLC-MS/MS analysis; type: ADME, cell-based, Hepatocyte; conditions: read-out: CLH (converted)
[5] = Stability of compound in GSH at pH 7.4 assessed as parent compound remaining at 10 mM and measured after 1 hrs by HPLC-UV analysis; type: physicochemical; conditions: GSH solution, read-out: Stability
[6] = Stability of compound in GSH at pH 7.4 assessed as parent compound remaining at 10 mM and measured after 2 hrs by HPLC-UV analysis; type: physicochemical; conditions: GSH solution, read-out: Stability
[7] = Stability of compound in GSH at pH 7.4 assessed as parent compound remaining at 10 mM and measured after 4 hrs by HPLC-UV analysis; type: physicochemical; conditions: GSH solution, read-out: Stability
[8] = Stability of compound in GSH at pH 7.4 assessed as parent compound remaining at 10 mM and measured after 24 hrs by HPLC-UV analysis; type: physicochemical; conditions: GSH solution, read-out: Stability
[9] = Stability of compound in cysteine at pH 7.4 assessed as parent compound remaining at 10 mM and measured after 1 hrs by HPLC-UV analysis; type: physicochemical; conditions: cysteine solution, read-out: Stability
[10] = Stability of compound in cysteine at pH 7.4 assessed as parent compound remaining at 10 mM and measured after 2 hrs by HPLC-UV analysis; type: physicochemical; conditions: cysteine solution, read-out: Stability
[11] = Stability of compound in cysteine at pH 7.4 assessed as parent compound remaining at 10 mM and measured after 4 hrs by HPLC-UV analysis; type: physicochemical; conditions: cysteine solution, read-out: Stability
[12] = Stability of compound in cysteine at pH 7.4 assessed as parent compound remaining at 10 mM and measured after 24 hrs by HPLC-UV analysis; type: physicochemical; conditions: cysteine solution, read-out: Stability
[13] = Apparent permeability across basolateral to apical side in human Caco-2 cells at 2 uM incubated for 2 hrs by LC-MS/MS analysis; type: ADME, cell-based
[14] = Thermodynamic solubility of compound at pH 6.5 PBS buffer; type: physicochemical; conditions: read-out: Therm_solubility
[15] = molecular target: T1, Nuclear receptor subfamily 1 group I member 2 (Homo sapiens, UniProt O75469); assay: Transactivation of human PXR in human HepG2 cells co-expressing luciferase gene under control of CYP3A4 promoter assessed as increase in luciferase activity incubated for 24 hrs by luminescence based analysis; type: ADME, cell-based
T1 sequence (O75469 whole entry): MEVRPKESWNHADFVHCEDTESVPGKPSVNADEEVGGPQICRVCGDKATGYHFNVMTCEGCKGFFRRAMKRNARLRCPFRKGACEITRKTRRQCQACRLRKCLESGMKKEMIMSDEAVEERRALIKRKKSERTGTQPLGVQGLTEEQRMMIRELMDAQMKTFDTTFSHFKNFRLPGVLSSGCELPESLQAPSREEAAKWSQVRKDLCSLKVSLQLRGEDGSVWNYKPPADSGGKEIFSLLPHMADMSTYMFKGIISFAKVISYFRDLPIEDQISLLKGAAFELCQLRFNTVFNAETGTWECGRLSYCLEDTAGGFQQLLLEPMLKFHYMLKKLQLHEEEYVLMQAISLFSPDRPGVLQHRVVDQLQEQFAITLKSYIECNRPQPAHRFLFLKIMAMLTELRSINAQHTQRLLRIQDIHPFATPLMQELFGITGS

[16] = AUClast in Wistar rat at 1 mg/kg,iv measured upto 24 hrs by HPLC-MS/MS analysis; type: ADME, organism-based; parameters: time < 24 hrs, dose 1 mg/kg, route iv; conditions: in vivo
[17] = Clearance in Wistar rat at 1 mg/kg,iv measured upto 24 hrs by HPLC-MS/MS analysis; type: ADME, organism-based; conditions: in vivo
[18] = Volume of distribution at steady state in Wistar rat at 1 mg/kg,iv measured upto 24 hrs by HPLC-MS/MS analysis; type: ADME, organism-based; conditions: in vivo, read-out: Vdss
[19] = Half life in Wistar rat at 1 mg/kg,iv measured upto 24 hrs by HPLC-MS/MS analysis; type: ADME, organism-based; conditions: in vivo
[20] = AUClast in NMRI-nu/nu mouse at 100 mg/kg,po measured upto 24 hrs by HPLC-MS/MS analysis; type: ADME, organism-based; parameters: time < 24 hrs, dose 100 mg/kg, route po; conditions: in vivo
[21] = Cmax in NMRI-nu/nu mouse at 100 mg/kg,po measured upto 24 hrs by HPLC-MS/MS analysis; type: ADME, organism-based; parameters: time < 24 hrs, dose 100 mg/kg, route po; conditions: in vivo
[22] = Tmax in NMRI-nu/nu mouse at 100 mg/kg,po measured upto 24 hrs by HPLC-MS/MS analysis; type: ADME, organism-based; conditions: in vivo
[23] = molecular target: T2, Peroxisome proliferator-activated receptor gamma (Mus musculus) (UniProt P37238); assay: Inverse agonist activity at PPARgamma in NMRI-nu/nu mouse assessed as reduction in Fabp4 mRNA expression in adipose tissue at 100 mg/kg for 3 days and measured 6 hrs last dose by qPCR analysis; type: organism-based; conditions: time 3.0 day
T2 sequence (whole entry): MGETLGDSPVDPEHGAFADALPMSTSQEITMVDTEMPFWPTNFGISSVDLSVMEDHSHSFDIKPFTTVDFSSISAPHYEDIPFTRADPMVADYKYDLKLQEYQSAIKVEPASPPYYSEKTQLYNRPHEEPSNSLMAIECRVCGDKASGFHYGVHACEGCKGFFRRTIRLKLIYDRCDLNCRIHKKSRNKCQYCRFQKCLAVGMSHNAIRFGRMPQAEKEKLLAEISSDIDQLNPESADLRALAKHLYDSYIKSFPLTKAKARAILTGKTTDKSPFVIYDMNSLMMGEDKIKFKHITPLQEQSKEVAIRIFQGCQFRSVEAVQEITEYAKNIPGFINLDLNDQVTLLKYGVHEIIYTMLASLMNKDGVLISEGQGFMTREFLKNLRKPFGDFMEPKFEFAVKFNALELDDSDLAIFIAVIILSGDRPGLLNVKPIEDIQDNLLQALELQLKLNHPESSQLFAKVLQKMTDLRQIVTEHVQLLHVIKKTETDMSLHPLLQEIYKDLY

[24] = molecular target: T2, Peroxisome proliferator-activated receptor gamma (Mus musculus); assay: Inverse agonist activity at PPARgamma in NMRI-nu/nu mouse assessed as decrease in Acaab1 mRNA expression in adipose tissue at 100 mg/kg for 3 days and measured upto 15 hrs last dose by qPCR analysis; type: organism-based; conditions: filed as inverse agonist, time 3.0 day
[25] = AUClast in Wistar rat at 0.3 mg/kg,iv measured upto 24 hrs by HPLC-MS/MS analysis; type: ADME, organism-based; parameters: dose 0.3 mg/kg, time < 24 hrs, route iv; conditions: in vivo
[26] = Clearance in Wistar rat at 0.3 mg/kg,iv measured upto 24 hrs by HPLC-MS/MS analysis; type: ADME, organism-based; conditions: in vivo
[27] = Volume of distribution at steady state in Wistar rat at 0.3 mg/kg,iv measured upto 24 hrs by HPLC-MS/MS analysis; type: ADME, organism-based; conditions: in vivo, read-out: Vdss
[28] = Half life in Wistar rat at 0.3 mg/kg,iv measured upto 24 hrs by HPLC-MS/MS analysis; type: ADME, organism-based; conditions: in vivo
[29] = molecular target: T2, Peroxisome proliferator-activated receptor gamma (Mus musculus); assay: Inverse agonist activity at PPARgamma in NMRI-nu/nu mouse assessed as reduction in Fabp4 mRNA expression in adipose tissue at 50 mg/kg for 3 days and measured 6 hrs last dose by qPCR analysis; type: organism-based; conditions: time 3.0 day
[30] = molecular target: T2, Peroxisome proliferator-activated receptor gamma (Mus musculus); assay: Inverse agonist activity at PPARgamma in NMRI-nu/nu mouse assessed as fold reduction in Fabp4 mRNA expression in adipose tissue at 50 mg/kg for 3 days and measured 15 hrs last dose by qPCR analysis; type: organism-based; conditions: filed as inverse agonist, time 3.0 day
[31] = molecular target: T2, Peroxisome proliferator-activated receptor gamma (Mus musculus); assay: Inverse agonist activity at PPARgamma in NMRI-nu/nu mouse assessed as decrease in Acaab1 mRNA expression in adipose tissue at 50 mg/kg for 3 days and measured upto 15 hrs last dose by qPCR analysis; type: organism-based; conditions: filed as inverse agonist, time 3.0 day

| CLint scaled at 1 µM [3] [mL/min/kg] | CLint scaled at 1 µM [4] [mL/min/kg] | remaining at 1 h, 10000 µM [5] [%] | remaining at 2 h, 10000 µM [6] [%] | remaining at 4 h, 10000 µM [7] [%] | remaining at 24 h, 10000 µM [8] [%] | remaining at 1 h, 10000 µM [9] [%] | remaining at 2 h, 10000 µM [10] [%] | remaining at 4 h, 10000 µM [11] [%] | remaining at 24 h, 10000 µM [12] [%] | Papp B→A at 2 h, 2 µM [13] [×10⁻⁶ cm/s] | solubility thermodynamic [14] [µg/mL] | IC50 [15] [µM] | AUC(0-t) at 24 h [20] [ng·h/mL] | Cmax [21] [nM] | Tmax [22] [h] | Activity [23] | Compound | IC50 [1] [nM] | Emax [2] [%] | also measured |
| --- | --- | --- | --- | --- | --- | --- | --- | --- | --- | --- | --- | --- | --- | --- | --- | --- | --- | --- | --- | --- |
| 15.5 | 29.3 | 100 | 100 | 100 | 100 | 100 | 100 | 100 | 100 | 17.1 | 6.55 (≈ 13.7 µM) | > 49.8 | 1900 | 3.2 | 1 | inactive | CC(C)(O)c1ccc(NC(=O)c2cc(C(=O)NCc3ccc(F)c(F)c3)c(F)cc2Cl)cc1 | 40.4 | 71 | AUClast [16]: 0.18 kg·h/L; clearance [17]: 93.3 mL/min/kg; Vd [18]: 1.8 L/kg; half-life [19]: 11.4 min; Activity [24]: Active |
| 12.7 | 28.8 | 74.8 | 56.4 | 46.5 | 32 | 93 | 77.8 | 71 | 51.6 | 23.8 | 0.1 (≈ 0.208 µM) | 14.7 | 12000 | 2100 | 7 | inactive | Cc1cc(OC(F)F)ccc1NC(=O)c1cc(C(=O)NCc2ccc(F)cc2)c(F)cc1Cl | 19.4 | 55 | AUClast [25]: 1.6 kg·h/L; clearance [26]: 10.3 mL/min/kg; Vd [27]: 2.7 L/kg; half-life [28]: 288 min; Activity [29]: inactive; Activity [30]: Active; Activity [31]: Active |
